Target: T1, PorB (wt PorB) (Neisseria meningitidis, UniProt M4GGR4)
T1 construct: outer membrane porin, homotrimer, purified in LDAO and inserted in planar lipid bilayers or liposomes; about 340 residues; expression as described previously
Assay: single-channel electrophysiology, planar black lipid membrane, JULES idealization
Assay type: binding
Details: +80 mV, 1 M KCl, 10 mM HEPES, pH 7.5; DPhPC/cholesterol 9:1; pore block

T1 sequence (M4GGR4 entry or part of it): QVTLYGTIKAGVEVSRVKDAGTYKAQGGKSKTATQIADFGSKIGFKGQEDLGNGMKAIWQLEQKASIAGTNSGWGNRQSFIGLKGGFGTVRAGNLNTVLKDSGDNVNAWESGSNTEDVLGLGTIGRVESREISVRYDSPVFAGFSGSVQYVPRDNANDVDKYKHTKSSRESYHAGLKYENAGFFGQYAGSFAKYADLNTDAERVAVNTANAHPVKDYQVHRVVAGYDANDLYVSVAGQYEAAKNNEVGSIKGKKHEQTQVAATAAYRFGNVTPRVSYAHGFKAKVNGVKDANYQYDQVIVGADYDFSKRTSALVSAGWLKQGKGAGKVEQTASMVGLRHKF

## CC1(C)S[C@@H]2[C@H](NC(=O)[C@H](N)c3ccccc3)C(=O)N2[C@H]1C(=O)O [ampicillin]
  residence time τR: 35 ± 1 μs

From article PMC8047873, “An antibiotic-resistance conferring mutation in a neisserial porin: Structure, ion flux, and ampicillin binding” (Biochimica et Biophysica Acta. Biomembranes, 2021)
